Test results published in US9133262B2, “Somatostatin antagonists” (Ipsen Pharma S.A.S., priority 1996, dated 2015).
Positions of bridges follow the written chain, without caps; N, C: chain ends. Non-standard residues stand in square brackets, D forms with d. Residues, ends and D or L forms follow the SMILES beside them. Tyr(3-I) = N[C@@H](Cc1ccc(O)c(I)c1)C(=O)O; dDip = N[C@@H](C(=O)O)C(c1ccccc1)c1ccccc1; Phe(4-Br) = N[C@@H](Cc1ccc(Br)cc1)C(=O)O; Phe(4-CN) = N#Cc1ccc(C[C@H](N)C(=O)O)cc1; Phe(4-Cl) = N[C@@H](Cc1ccc(Cl)cc1)C(=O)O; Dip = N[C@H](C(=O)O)C(c1ccccc1)c1ccccc1; Phe(3-F) = N[C@@H](Cc1cccc(F)c1)C(=O)O; Phe(4-F) = N[C@@H](Cc1ccc(F)cc1)C(=O)O; Phe(4-I) = N[C@@H](Cc1ccc(I)cc1)C(=O)O; dPhe(4-F) = N[C@H](Cc1ccc(F)cc1)C(=O)O; 2Nal = N[C@@H](Cc1ccc2ccccc2c1)C(=O)O; Phe(2-F) = N[C@@H](Cc1ccccc1F)C(=O)O; Bta = N[C@@H](Cc1csc2ccccc12)C(=O)O; Igl = N[C@H](C(=O)O)C1Cc2ccccc2C1; 3Pal = N[C@@H](Cc1cccnc1)C(=O)O; Tle = CC(C)(C)[C@H](N)C(=O)O

system: rat pituitary cells; assay type: cell-based; conditions: 3 h
How it was run: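 GH radioimmunoassay of medium after 3 h, 37° C incubation of cultured rat anterior pituitary cells with antagonist (6 doses) against 1 nM somatostatin in presence of 1 nM GRF(1-29)NH2; medium 199, 1% BSA, triplicates. IC50 derived by curve fit with top fixed at GRF-only control response.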

SMILES | IC50 [nM]
CC(C)[C@@H]1NC(=O)[C@H](CCCCN)NC(=O)[C@@H](Cc2c[nH]c3ccccc23)NC(=O)[C@H](Cc2c[nH]cn2)NC(=O)[C@H](NC(=O)[C@@H](N)Cc2cccc(F)c2)CSSC[C@@H](C(=O)N[C@@H](Cc2cccc(F)c2)C(N)=O)NC1=O [Analog No. 40, H2-m-F-Phe-D-Cys-His-D-Trp-Lys-Val-Cys-m-F-Phe-NH2] (H-[Phe(3-F)][dC]H[dW]KVC[Phe(3-F)]-NH2; disulfide 2-7) | 110
CC(C)[C@@H]1NC(=O)[C@H](CCCCN)NC(=O)[C@@H](Cc2c[nH]c3ccccc23)NC(=O)[C@H](Cc2c[nH]cn2)NC(=O)[C@H](NC(=O)[C@@H](N)Cc2ccccc2F)CSSC[C@@H](C(=O)N[C@@H](Cc2ccccc2F)C(N)=O)NC1=O [Analog No. 41, H2-o-F-Phe-D-Cys-His-D-Trp-Lys-Val-Cys-o-F-Phe-NH2] (H-[Phe(2-F)][dC]H[dW]KVC[Phe(2-F)]-NH2; disulfide 2-7) | 210
CC(C)[C@@H]1NC(=O)[C@H](CCCCN)NC(=O)[C@@H](Cc2c[nH]c3ccccc23)NC(=O)[C@H](Cc2cccnc2)NC(=O)[C@H](NC(=O)[C@@H](N)Cc2ccc(Cl)cc2)CSSC[C@@H](C(=O)N[C@@H](Cc2ccc(Cl)cc2)C(N)=O)NC1=O [Analog No. 43, H2-Cpa-D-Cys-Pal-D-Trp-Lys-Val-Cys-Cpa-NH2] (H-[Phe(4-Cl)][dC][3Pal][dW]KVC[Phe(4-Cl)]-NH2; disulfide 2-7) | 0.82
CC(C)[C@@H]1NC(=O)[C@H](CCCCN)NC(=O)[C@@H](Cc2c[nH]c3ccccc23)NC(=O)[C@H](Cc2cccnc2)NC(=O)[C@H](NC(=O)[C@@H](N)Cc2ccc(C#N)cc2)CSSC[C@@H](C(=O)N[C@@H](Cc2ccc(C#N)cc2)C(N)=O)NC1=O [Analog No. 47, H2-p-CN-Phe-D-Cys-Pal-D-Trp-Lys-Val-Cys-p-CN-Phe-NH2] (H-[Phe(4-CN)][dC][3Pal][dW]KVC[Phe(4-CN)]-NH2; disulfide 2-7) | 53
CC(C)[C@@H]1NC(=O)[C@H](CCCCN)NC(=O)[C@@H](Cc2c[nH]c3ccccc23)NC(=O)[C@H](Cc2csc3ccccc23)NC(=O)[C@H](NC(=O)[C@@H](N)Cc2ccc3ccccc3c2)CSSC[C@@H](C(=O)N[C@@H](Cc2ccc3ccccc3c2)C(N)=O)NC1=O [Analog No. 49, H2-β-Nal-D-Cys-Bta-D-Trp-Lys-Val-Cys-β-Nal-NH2] (H-[2Nal][dC][Bta][dW]KVC[2Nal]-NH2; disulfide 2-7) | 230
CC(C)(C)[C@@H]1NC(=O)[C@H](CCCCN)NC(=O)[C@@H](Cc2c[nH]c3ccccc23)NC(=O)[C@H](Cc2cccnc2)NC(=O)[C@H](NC(=O)[C@@H](N)Cc2ccc(F)cc2)CSSC[C@@H](C(=O)N[C@@H](Cc2ccc3ccccc3c2)C(N)=O)NC1=O [Analog No. 50, H2-p-F-Phe-D-Cys-Pal-D-Trp-Lys-Tle-Cys-β-Nal-NH2] (H-[Phe(4-F)][dC][3Pal][dW]K[Tle]C[2Nal]-NH2; disulfide 2-7) | 1.1
CC(C)(C)[C@@H]1NC(=O)[C@H](CCCCN)NC(=O)[C@@H](Cc2c[nH]c3ccccc23)NC(=O)[C@H](Cc2cccnc2)NC(=O)[C@H](NC(=O)[C@H](N)Cc2ccc(F)cc2)CSSC[C@@H](C(=O)N[C@@H](Cc2ccc3ccccc3c2)C(N)=O)NC1=O [Analog No. 51, H2-D-p-F-Phe-D-Cys-Pal-D-Trp-Lys-Tle-Cys-β-Nal-NH2] (H-[dPhe(4-F)][dC][3Pal][dW]K[Tle]C[2Nal]-NH2; disulfide 2-7) | 12
CC(C)[C@@H]1NC(=O)[C@H](CCCCN)NC(=O)[C@@H](Cc2c[nH]c3ccccc23)NC(=O)[C@H](Cc2cccnc2)NC(=O)[C@H](NC(=O)[C@@H](N)Cc2ccc(I)cc2)CSSC[C@@H](C(=O)N[C@@H](Cc2ccc(I)cc2)C(N)=O)NC1=O [Analog No. 53, H2-Iph-D-Cys-Pal-D-Trp-Lys-Val-Cys-Iph-NH2] (H-[Phe(4-I)][dC][3Pal][dW]KVC[Phe(4-I)]-NH2; disulfide 2-7) | 2.9

The remaining compounds from weak to strong by IC50, led by results:

IC50 [nM] | SMILES
130 | CC(C)[C@@H]1NC(=O)[C@H](CCCCN)NC(=O)[C@@H](Cc2c[nH]c3ccccc23)NC(=O)[C@H](Cc2cccnc2)NC(=O)[C@H](NC(=O)[C@@H](N)Cc2ccc3ccccc3c2)CSSC[C@@H](C(=O)N[C@@H](C(N)=O)C(c2ccccc2)c2ccccc2)NC1=O [Analog No. 45, H2-β-Nal-D-Cys-Pal-D-Trp-Lys-Val-Cys-D-Dip-NH2] (H-[2Nal][dC][3Pal][dW]KVC[dDip]-NH2; disulfide 2-7)
50 | CC(C)[C@@H]1NC(=O)[C@H](CCCCN)NC(=O)[C@@H](Cc2c[nH]c3ccccc23)NC(=O)[C@H](Cc2ccc(O)cc2)NC(=O)[C@H](NC(=O)[C@@H](N)Cc2ccc3ccccc3c2)CSSC[C@@H](C(=O)N[C@@H](C(N)=O)C(c2ccccc2)c2ccccc2)NC1=O [Analog No. 48, H2-β-Nal-D-Cys-Tyr-D-Trp-Lys-Val-Cys-D-Dip-NH2] (H-[2Nal][dC]Y[dW]KVC[dDip]-NH2; disulfide 2-7)
44 | CC(C)[C@@H]1NC(=O)[C@H](CCCCN)NC(=O)[C@@H](Cc2c[nH]c3ccccc23)NC(=O)[C@H](Cc2cccnc2)NC(=O)[C@H](NC(=O)[C@@H](N)Cc2ccc3ccccc3c2)CSSC[C@@H](C(=O)N[C@H](C(N)=O)C(c2ccccc2)c2ccccc2)NC1=O [Analog No. 42, H2-β-Nal-D-Cys-Pal-D-Trp-Lys-Val-Cys-Dip-NH2] (H-[2Nal][dC][3Pal][dW]KVC[Dip]-NH2; disulfide 2-7)
29 | CC(C)(C)[C@@H]1NC(=O)[C@H](CCCCN)NC(=O)[C@@H](Cc2c[nH]c3ccccc23)NC(=O)[C@H](Cc2cccnc2)NC(=O)[C@H](NC(=O)[C@@H](N)Cc2c[nH]c3ccccc23)CSSC[C@@H](C(=O)N[C@@H](Cc2ccc3ccccc3c2)C(N)=O)NC1=O [Analog No. 54, H2-Trp-D-Cys-Pal-D-Trp-Lys-Tle-Cys-β-Nal-NH2] (H-W[dC][3Pal][dW]K[Tle]C[2Nal]-NH2; disulfide 2-7)
21 | CC(C)[C@@H]1NC(=O)[C@H](CCCCN)NC(=O)[C@@H](Cc2c[nH]c3ccccc23)NC(=O)[C@H](Cc2cccnc2)NC(=O)[C@H](NC(=O)[C@@H](N)C2Cc3ccccc3C2)CSSC[C@@H](C(=O)N[C@H](C(N)=O)C2Cc3ccccc3C2)NC1=O [Analog No. 44, H2-Igl-D-Cys-Pal-D-Trp-Lys-Val-Cys-Igl-NH2] (H-[Igl][dC][3Pal][dW]KVC[Igl]-NH2; disulfide 2-7)
20 | CC(C)[C@@H]1NC(=O)[C@H](CCCCN)NC(=O)[C@@H](Cc2c[nH]c3ccccc23)NC(=O)[C@H](Cc2ccc(O)c(I)c2)NC(=O)[C@H](NC(=O)[C@@H](N)Cc2ccc3ccccc3c2)CSSC[C@@H](C(=O)N[C@@H](Cc2ccc3ccccc3c2)C(N)=O)NC1=O [Analog No. 46, H2-β-Nal-D-Cys-3-I-Tyr-D-Trp-Lys-Val-Cys-β-Nal-NH2] (H-[2Nal][dC][Tyr(3-I)][dW]KVC[2Nal]-NH2; disulfide 2-7)
2.6 | CC(C)[C@@H]1NC(=O)[C@H](CCCCN)NC(=O)[C@@H](Cc2c[nH]c3ccccc23)NC(=O)[C@H](Cc2cccnc2)NC(=O)[C@H](NC(=O)[C@@H](N)Cc2ccc(Br)cc2)CSSC[C@@H](C(=O)N[C@@H](Cc2ccc(Br)cc2)C(N)=O)NC1=O [Analog No. 52, H2-Bpa-D-Cys-Pal-D-Trp-Lys-Val-Cys-Bpa-NH2] (H-[Phe(4-Br)][dC][3Pal][dW]KVC[Phe(4-Br)]-NH2; disulfide 2-7)
